Values quoted from earlier work as cited in patent publication US7985754B2, “Selective antagonists of A2A adenosine receptors” (Trovis Pharmaceuticals, LLC, priority 2006, dated 2011).

Experiments:
[1] = in words
[2] = in words; remark: listed apart in the source

Row | solubility [1] | bioavailability [2] | SMILES
1 | very poorly soluble |  | Nc1nc2c(cnn2CCc2ccccc2)c2nc(-c3ccco3)nn12 [SCH58261]
2 |  | poor bioavailability | Nc1nc(NCCc2ccc(O)cc2)nc2nc(-c3ccco3)nn12 [ZM241385]
